Entries after “also recorded” stand apart in the source; their conditions may differ.
Tests used:
Mouse pk profiles = format: in vivo
CD47 [1] = experiment: Flow cytometry, anti-human CD47 CC2C6 antibody binding on Raji cell surface; format: cell-based
Description: (§1) Binding between CD47 and SIRPα was studied by measuring the level of CD47 binding using any suitable method. Flow cytometric analysis is useful to quantify the level of binding of CD47 to antibody CC2C6, which is then subjected to an immune-staining procedure using fluorochrome-conjugated secondary antibody followed by analysis of the immune-staining signal with a flow cytometry instrument to obtain the level of the CD47-CC2C6 binding. In another method, analysis of CD47 is performed using SIRPα-Fc formed from SIRPα fused with human IgG1, which is then subjected to an immune-staining procedure using fluorochrome-conjugated secondary antibody against human IgG1, followed by analysis of the immune-staining signal. SIRPα is expressed on the surface of a myeloid cell such as macrophage, monocyte, neutrophil, or dendritic cell. Alternatively, SIRPα is fused with human IgG1 to form a SIRPα-Fc recombinant protein. […] An anti-cancer agent (e.g., rituximab) can be used together with a compound of formula (I). Useful anti-cancer agents are described above including anti-PD-L1 antibodies, anti-CD20 antibodies, anti-HER2 antibodies, anti-EGFR antibodies, and anti-CD47 antibodies. Other suitable anti-cancer agents are chemotherapeutic agents such as doxorubicin, epirubicin, idarubicin, methotrexate, mitoxantrone, oxaliplatin, and cyclophosphamide.
Human B-cell lymphoma Raji cells were purchased from BCRC, Taiwan. Raji cells were maintained at 37° C. under 5% CO2 in RPMI-1640 medium (Hyclone, Marlborough, Mass.) supplemented with 10% fetal bovine serum (FBS) (SAFC, Sigma-Aldrich, St. Louis, Mo.) containing 2 mM L-glutamine (Hyclone, Marlborough, Mass.), 10 mM HEPES (Hyclone, Marlborough, Mass.) and 1 mM sodium pyruvate (Hyclone, Marlborough, Mass.).
(§2) Antibody conjugates and extracellular domain of SIRPα used to analyze cell surface CD47 binding include anti-human CD47 CC2C6, 2D3, recombinant human SIRPα/CD172a Fc chimer protein, and anti-human IgG Fc. To determine inhibition of CD47 binding, cancer cells were treated with compounds of formula (I) at various concentrations for 4 days. Thereafter, the cells were washed with PBS containing 0.5% BSA (FACS buffer) followed by incubation with fluorochrome-labeled antibodies to human CD47 (i.e., CC2C6 and 2D3) at 1:50 dilution in FACS buffer for 30 minutes at 4° C. Compounds of formula (I) produced a dose-dependent inhibition of anti-CD47 CC2C6 antibody that recognized CD47 and SIRPα binding site on the tumor cell surface including B-cell lymphoma Raji cells, colon cancer cells DLD-1, and ovarian cancer SK-OV-3 cells (see FIGS. 1A, 1B, and 1C, respectively).

CD47 [2] = experiment: Pharmacodynamic study, CC2C6 binding and total CD47 on Raji xenograft tumor cells; format: in vivo, human; settings: 100 mg/kg p.o. QD*5, 10 days
Description: A pharmacodynamic study was also conducted to evaluate target engagement of Compound 34. In this study, one million Raji cells in culture medium and matrigel (1:1, v/v) were injected subcutaneously into the left flank region of each mouse. Treatments were initiated after randomization with inclusion of tumors at approximately 150 mm^3. A dosing vehicle for Compound 34 was prepared using 10% DMA: 40% PEG400: 50% (1% CMC) (v/v/v) and was dosed orally (p.o.) at 100 mg/kg once a day and 5 days a week (Q.D.*5). The mice were treated with either the vehicle control or Compound 34 for 10 days. They were then sacrificed 24 hours after the last dose (n=4 per group). Tumors were harvested and isolated into single cell suspensions for flow cytometry analysis. Unexpectedly, Compound 34 reduced 56% of anti-CD47 CC2C6 antibody binding on the tumor cell surface, as indicated by a decreasing level of anti-CC2C6^+ tumor cells in the Compound 34-treated mice as compared to the vehicle-treated mice.

CD47 [3] = experiment: Flow cytometry, anti-human CD47 CC2C6 antibody binding on SK-OV-3 cell surface; format: cell-based
Description: as §1
SK-OV-3 cells were purchased from ATCC (Manassas, Va.). SK-OV-3 cells were maintained at 37° C. under 5% CO2 in McCoy's 5a medium (Gibco, ThermoFisher, Waltham, Mass.) with 10% fetal bovine serum (FBS) (Sigma-Aldrich, St Louis, Mo.), and 2 mM L-glutamine.
as §2

Question: With `O=C1NC[C@H](c2ccc(-c3csc(C(F)(F)F)c3)c(F)c2F)N1c1ccc2[nH]cnc2c1` [Compound 34] as the compound, how does the “AUC Plasma” value (Mouse pk profiles; IV (2 mg/kg)) read?
Answer: 8869 ng·h/g

Question: And the “AUC Plasma” value (Mouse pk profiles; PO (30 mg/kg))?
Answer: 56451 ng·h/g

Question: And the clearance (Mouse pk profiles; plasma, IV (2 mg/kg))?
Answer: 4.6 mL/min/kg

Question: What about the Cmax (Mouse pk profiles; plasma, PO (30 mg/kg)) of the same compound?
Answer: 1980 ng/mL

Question: What about the bioavailability (Mouse pk profiles; plasma, PO (30 mg/kg) vs IV (2 mg/kg)) of the same compound?
Answer: 43%

Question: What about the half-life (Mouse pk profiles; plasma, PO (30 mg/kg), read-out: T1/2 (h) Plasma (converted)) of the same compound?
Answer: 9.3 h

Question: And the IC50 (CD47 [1]; B-cell Lymphoma (Raji cells), 4 days treatment, read-out: IC50, inhibition of CC2C6 binding)?
Answer: 1100 nM

Question: And the “inhibition of binding of anti-human CD47 antibody CC2C6 (in words)” value (CD47 [1]; Raji cells)?
Answer: specifically affected anti-CD47 CC2C6 antibody; also recorded: effectively inhibited

Question: And the “total CD47 expression level on the tumor cell surface” value (CD47 [2])?
Answer: did not affect a total CD47 expression level; also recorded: without affecting a total CD47 expression level

Question: What about the IC50 (CD47 [3]; Ovarian Cancer (SK-OV3 cells), 4 days treatment, read-out: IC50, inhibition of CC2C6 binding) of the same compound?
Answer: 190 nM

Question: And the “inhibition of binding of anti-human CD47 antibody CC2C6 (in words)” value (CD47 [3]; SK-OV-3 cells)?
Answer: effectively inhibited

Source: US20230097801A1, “METHODS OF INCREASING CELL PHAGOCYTOSIS” (National Health Research Institutes, priority 2021, published 2023)
